Measured values reported in patent US5179217A, “Method of preparing photochemotherapic alkylangelicin compounds” (priority 1982, dated 1993).
Values joined by “and” are separate entries in the source; they are usually repeats but may differ in a detail not shown here. Equal entries are not always repeated. Where two headings read alike, the source gives them in different places.

What was measured:
DNA [1] = experiment: Binding parameters of the complexes between 6-alkylangelicins and DNA (in the dark); design: K values: unit not given here; details: for -n (number of nucleotides occluded by one bound molecule) / l/-n (frequency of binding sites, ligands bound per nucleotide): according to Mc Ghee and Von Hippel; for K values: complex with DNA
From the text: (§1) The 6-alkylangelicins show a strong affinity with DNA in the dark, thus forming molecular intercalated complexes; moreover the 6-methylangelicins complexed to DNA by irradiation bind very strongly to the macromolecule, inducing only monofunctional lesions (Table I).
(§2) Binding parameters of the complexes between 6-alkylangelicins and DNA
^a According to Mc Ghee and Von Hippel, (J.Mol. Biol., 86, 469, 1974)
-n is defined here as the number of nucleotides occluded by one bound
molecule of angelicin derivative.
^b l/-n defines, according to Mc Ghee and Von Hippel, the frequency o
binding sites; in other words, the number of ligands bound per nucleotide
and can be considered analogous to the "-n" value obtained by the classic
Scratchard method (Ann. N.Y. Acad. Sci., 51, 660, 1949).

DNA [2] = experiment: Rate constant of photoreaction with DNA; type: biochemical; details: irradiation
From the text: as §1, §2
and rate constant of their photoreactions with the macromolecule.

[3] = test system: Ehrlich ascites tumor cells; experiment: Inhibition of DNA synthesis in Ehrlich ascites tumor cells; type: cell-based; details: relative to angelicin = 100
From the text: (§3) The 6-alkylangelicins show a strong antiproliferative activity in Ehrlich ascites tumor cells (Table II) and on the skin of mice in terms of DNA synthesis inhibition (Table III). These compounds are practically unable to induce skin phototoxicity on albino guinea-pig skin (Table II).
(§4) (a) Determined according to Bordin et al., Il Farmaco, Ed.Sc., 36, 506,

albino guinea-pig skin = experiment: Skin erythemogenic activity / skin phototoxicity on albino guinea-pig skin; details: in vivo
From the text: as §3, §4

epidermal DNA synthesis [4] = experiment: Inhibition of epidermal DNA synthesis in the mouse in vivo after topical application and UV-A irradiation; details: topical 50 μg/cm^2, UV-A 9 J/cm^2, ± S.E.
Protocol: Inhibition of epidermal DNA synthesis in the mouse "in vivo"
after topical application (50 μg/cm^2) of the compound and

epidermal DNA synthesis [5] = experiment: Inhibition of epidermal DNA synthesis in the mouse in vivo after oral administration and UV-A irradiation; details: light or radiation study, read-out: % inhibition of epidermal DNA synthesis
Protocol: The strong activity of the 6-alkylangelicins according to the invention in inhibiting the epidermal DNA synthesis of mice after oral administration (see Table VI) allows to consider these compounds effective also by oral administration in humans and UV-A irradiation.
Inhibition of epidermal DNA synthesis
in the mouse "in vivo" after oral
administration of the compound (250 mg/kg)
and UV-A irradiation (9 J/cm^2) (a).
as §4

psoriatic lesions = details: for % clearance: topical 5 μg/cm^2 + UV-A (maximal dose 4-10 J/cm^2), 9-15 treatments; for dark pigmentation of human skin: treated area, patients
Protocol: In the treated patients various areas 4×4 cm of the affected skin were used:
a) in the first area an ethanolic solution (0.1% W/V) of the compound under investigation, was applied until a concentration of 5 μg/cm^2 was reached and left to evaporate by the heat of the body (or by hot air stream).
c) a third area was treated in the same way as area a), but was not irradiated with UV-A;
d) a fourth area was irradiated as in a) with the same dose of UV-A light in the absence of any compound.

E. coli WP2-uvr A = type: cell-based
Protocol: Mutagenic activity of 6-alkylangelicins on E. coli
WP2-uvr A by irradiation with UV-A (a).
(a) The test was performed at the furocoumarin concentration of 5 μg/m
according to Venturini et al., Chem. Biol. Interactions, 30, 203, 1980.

[6] = Acute toxicity (LD50) in mice; details: mouse, in vivo
DNA [7] = details: reference compound; data from Dall'Acqua et al. 1979; cited from earlier work
DNA [8] = details: reference compound; data from Dall'Acqua et al. 1979; cited from earlier work; remark: listed apart in the source
mice = experiment: Acute toxicity (LD50) in mice; details: mice, per os; 6,4'-dimethylangelicin in methylcellulose suspension
[9] = mouse in vivo, oral 250 mg/kg, UV-A 9 J/cm^2, ± S.E.
[10] = UV-A irradiation time 10 seconds
[11] = UV-A irradiation time 20 seconds
[12] = UV-A irradiation time 30 seconds
[13] = UV-A irradiation time 60 seconds

| SMILES | -n (number of nucleotides occluded by one bound molecule) (DNA [1]) | l/-n (frequency of binding sites, ligands bound per nucleotide) (DNA [1]) | K values (DNA [1]) | rate constant of photoreaction with DNA (DNA [2]) [min^-1 × 10^2] | Relative activity (inhibition of DNA synthesis in Ehrlich ascites tumor cells) [3] | skin erythemogenic activity (albino guinea-pig skin) | % inhibition of epidermal DNA synthesis (epidermal DNA synthesis [4]) [%] | inhibition at 250 mg/kg (epidermal DNA synthesis [5]; [9]) [%] | no of mutants per 10^6 survivors (E. coli WP2-uvr A; [10]) | no of mutants per 10^6 survivors (E. coli WP2-uvr A; [11]) | no of mutants per 10^6 survivors (E. coli WP2-uvr A; [12]) | no of mutants per 10^6 survivors (E. coli WP2-uvr A; [13]) | further results |
| --- | --- | --- | --- | --- | --- | --- | --- | --- | --- | --- | --- | --- | --- |
| Cc1cc2ccc(=O)oc2c2c(C)coc12 [6,4'-dimethylangelicin] | 16.39 | 0.061 ± 0.003 | 6,300 ± 541 | 9.90 | 1096 | - | 36.56 ± 3.9 | 49.2 ± 8 | 0.96 mutants per 10^6 survivors | 1.76 mutants per 10^6 survivors | 2.63 mutants per 10^6 survivors |  | skin phototoxicity on guinea-pig skin (albino guinea-pig skin): absence of skin phototoxicity on guinea-pig skin; pigmental capacity (psoriatic lesions; single psoriatic patients, topical 5 μg/cm^2 + UV-A): +; % clearance (psoriatic lesions; single psoriatic patients, listed as 6,4'-DMA): 100% and 90%; dark pigmentation of human skin (psoriatic lesions): evident dark pigmentation in the treated area, less pronounced than that induced by 8-MOP; genotoxicity, mutagenic activity (E. coli WP2-uvr A): low genotoxicity; LD50 ([6]; ip): 750 mg/kg; LD50 ([6]; po): > 2000 mg/kg |
| Cc1cc(=O)oc2c1cc(C)c1occ(C)c12 [6,4,4'-trimethylangelicin] | 10.99 | 0.091 ± 0.0045 | 10,100 ± 1190 | 13.30 | 41666 | - |  | 67.7 ± 8.2 | 0.84 mutants per 10^6 survivors | 1.18 mutants per 10^6 survivors | 1.24 mutants per 10^6 survivors | 1.98 mutants per 10^6 survivors | skin phototoxicity on guinea-pig skin (albino guinea-pig skin): absence of skin phototoxicity on guinea-pig skin; % clearance (psoriatic lesions; single psoriatic patients, listed as 6,4,4'-TMA): 100% and 95% and 90%; dark pigmentation of human skin (psoriatic lesions): appears more active; genotoxicity, mutagenic activity (E. coli WP2-uvr A): low genotoxicity |
| Cc1cc2c(o1)c(C)cc1c(C)cc(=O)oc12 [6,4,5'-trimethylangelicin] | 22.22 | 0.045 ± 0.002 | 3,310 ± 281 | 7.02 | 646 | - |  | 36.8 ± 8.5 | 0.62 mutants per 10^6 survivors | 0.91 mutants per 10^6 survivors | 1.23 mutants per 10^6 survivors | 1.93 mutants per 10^6 survivors |  |
| Cc1cc(=O)oc2c1cc(C)c1occc12 [6,4-dimethylangelicin] | 15.87 | 0.063 ± 0.003 | 2,990 ± 232 | 5.23 | 625 | - | 47.05 ± 4.3 | 58.4 ± 13 | 0.24 mutants per 10^6 survivors | 0.7 mutants per 10^6 survivors | 0.99 mutants per 10^6 survivors | 1.83 mutants per 10^6 survivors |  |
| Cc1cc2c(o1)c(C)cc1ccc(=O)oc12 [6,5'-dimethylangelicin] | 12.82 | 0.078 ± 0.004 | 1,975 ± 136 | 3.00 | 210 | - |  | 22.5 ± 12 |  |  |  |  |  |
| Cc1cc2c(o1)c(C)c(C)c1ccc(=O)oc12 [6,5,5'-trimethylangelicin] | 14.29 | 0.070 ± 0.0035 | 3,730 ± 339 | 2.30 |  |  | 36.01 ± 11.7 | 60.6 ± 14.1 |  |  |  |  |  |
| Cc1c(C)c2occc2c2oc(=O)ccc12 [6,5-dimethylangelicin] |  |  |  |  |  |  | 52.83 ± 2.3 | 50.1 ± 19 |  |  |  |  |  |
| Cc1cc2ccc(=O)oc2c2ccoc12 [6-methylangelicin] | 20.83 | 0.048 ± 0.002 | 925 ± 64 | 3.60 | 95 | - | 29.25 ± 13.3 | 19.6 ± 9.2 |  |  |  |  |  |
| COc1c2occc2cc2ccc(=O)oc12 [8-MOP, 8-methoxypsoralen, reference compound] |  |  |  |  |  | ++ | 61.0 ± 1.6 | 39.1 ± 3.7 | 0.4 mutants per 10^6 survivors | 1.15 mutants per 10^6 survivors | 1.5 mutants per 10^6 survivors | 3.1 mutants per 10^6 survivors | induction of skin erythema in humans (psoriatic lesions; human, in vivo): severe phototoxic response; no of mutants per 10^6 survivors (E. coli WP2-uvr A; UV-A irradiation time 90 seconds): 7.0 mutants per 10^6 survivors; -n (number of nucleotides occluded by one bound molecule) (DNA [7]): 7.81; K values (DNA [7]): 736; l/-n (frequency of binding sites, ligands bound per nucleotide) (DNA [7]): 0.128; rate constant of photoreaction with DNA (DNA [8]): 3.10 min^-1 × 10^2; LD50 ([6]; ip): 300 mg/kg; LD50 (mice): 750 mg/kg |
| O=c1ccc2ccc3occc3c2o1 [angelicin] | 15.87 | 0.063 ± 0.003 | 560 | 1.10 |  |  | 17.5 ± 2.5 |  |  |  |  |  | inhibition at 250 mg/kg (epidermal DNA synthesis [5]; Mus musculus, po): 28 ± 2% |
